Reference: patent publication US20090022806A1, “Nanoparticle and polymer formulations for thyroid hormone analogs, antagonists and formulations and uses thereof” (priority 2006, published 2009)

Key:
[1] = tested on: Human dermal micro-vascular endothelial cells (HDMEC); assay: Three-dimensional human micro-vascular endothelial sprouting assay; assay type: cell-based
Method: In Vitro Three-Dimensional Sprout Angiogenesis of Human Dermal Micro-Vascular Endothelial Cells (HDMEC) Cultured on Micro-Carrier Beads Coated with Fibrin: Confluent HDMEC (passages 5-10) were mixed with gelatin-coated Cytodex-3 beads with a ratio of 40 cells per bead. Cells and beads (150-200 beads per well for 24-well plate) were suspended with 5 ml EBM+15% normal human serum, mixed gently every hour for first 4 hours, then left to culture in a CO2 incubator overnight. The next day, 10 ml of fresh EBM+5% HS were added, and the mixture was cultured for another 3 hours. Before experiments, the culture of EC-beads was checked; then 500 ul of PBS was added to a well of 24-well plate, and 100 ul of the EC-bead culture solution was added to the PBS. The number of beads was counted, and the concentration of EC/beads was calculated.
A fibrinogen solution (1 mg/ml) in EBM medium with or without angiogenesis factors or testing factors was prepared. For positive control, 50 ng/ml VEGF+25 ng/ml FGF2 was used. EC-beads were washed with EBM medium twice, and EC-beads were added to fibrinogen solution. The experiment was done in triplicate for each condition. The EC-beads were mixed gently in fibrinogen solution, and 2.5 ul human thrombin (0.05 U/ul) was added in 1 ml fibrinogen solution; 300 ul was immediately transferred to each well of a 24-well plate. The fibrinogen solution polymerizes in 5-10 minutes; after 20 minutes, we added EBM+20% normal human serum+10 ug/ml aprotinin. The plate was incubated in a CO2 incubator. It takes about 24-48 hours for HDMEC to invade fibrin gel and form tubes.
A micro-carrier in vitro angiogenesis assay previously designed to investigate bovine pulmonary artery endothelial cell angiogenic behavior in bovine fibrin gels [Nehls and Drenckhahn, 1995a, b] was modified for the study of human microvascular endothelial cell angiogenesis in three-dimensional ECM environments (FIGS. 1 and 2). Briefly, human fibrinogen, isolated as previously described [Feng et al, 1999], was dissolved in M199 medium at a concentration of 1 mg/ml (pH 7.4) and sterilized by filtering through a 0.22 micron filter. An isotonic 1.5 mg/ml collagen solution was prepared by mixing sterile Vitrogen 100 in 5×M199 medium and distilled water. The pH was adjusted to 7.4 by 1N NaOH. In certain experiments, growth factors and ECM proteins (such as VEGF, bFGF, PDGF-BB, serum, gelatin, and fibronectin) were added to the fibrinogen or collagen solutions. About 500 EC-beads were then added to the 1 mg/ml fibrinogen or 1.5 mg/ml collagen solutions. Subsequently, EC-beads-collagen or EC-beads-fibrinogen suspension (500 EC-beads/ml) was plated onto 24-well plates at 300 ul/well. EC-bead-collagen cultures were incubated at 37° C. to form gel. The gelling of EC-bead-fibrin cultures occurred in less than 5 minutes at room temperature after the addition of thrombin to a final concentration of 0.5 U/ml. After gelation, 1 ml of fresh assay medium (EBM supplemented with 20% normal human serum for HDMEC or EBM supplemented with 10% fetal bovine serum was added to each well. The angiogenic response was monitored visually and recorded by video image capture. Specifically, capillary sprout formation was observed and recorded with a Nikon Diaphot-TMD inverted microscope (Nikon Inc.; Melville, N.Y.), equipped with an incubator housing with a Nikon NP-2 thermostat and Sheldon #2004 carbon dioxide flow mixer. The microscope was directly interfaced to a video system consisting of a Dage-MTI CCD-72S video camera and Sony 12″ PVM-122 video monitor linked to a Macintosh G3 computer. The images were captured at various magnifications using Adobe Photoshop. The effect of angiogenic factors on sprout angiogenesis was quantified visually by determining the number and percent of EC-beads with capillary sprouts. One hundred beads (five to six random low power fields) in each of triplicate wells were counted for each experimental condition. All experiments were repeated at least three times. […]

[2] = tested on: human dermal fibroblast cells; assay: In vitro 3D wound healing assay of human dermal fibroblast cells; assay type: cell-based; settings: T4 between 0.1 μM and 1.0 μM
Method: Step 1: Prepare contracted collagen gels: • 1) Coat 24-well plate with 350 ul 2% BSA at RT for 2 hr, • 2) 80% confluent NHDF (normal human dermal fibroblast cells, Passage 5-9) are trypsinized and neutralized with growth medium, centrifuge and wash once with PBS • 3) Prepare collagen-cell mixture, mix gently and always on ice:
• 4) Aspire 2% BSA from 24 well plate, add collagen-cell mixture 350 ul/well, and incubate the plate in 37° C. CO2 incubator. • 5) After 1 hr, add DMEM+5% FBS medium 0.5 ml/well, use a 10 ul tip Detach the collagen gel from the edge of each well, then incubate for 2 days. The fibroblast cells will contract the collagen gel Step 2: Prepare 3D fibrin wound clot and embed wounded collagen culture • 1) Prepare fibrinogen solution (1 mg/ml) with or without testing regents. 350 ul fibrinogen solution for each well in eppendorf tube.
• 2) Cut each contracted collagen gel from middle with scissors. Wash the gel with PBS and transfer the gel to the center of each well of 24 well plate • 3) Add 1.5 ul of human thrombin (0.25 U/ul) to each tube, mix well and then add the solution around the collagen gel, the solution will polymerize in 10 mins. After 20 mins, add DMEM+1% (or 5%) FBS with or without testing agent, 450 ul/well and incubate the plate in 37° C. CO2 incubator for up to 5 days. Take pictures on each day.

purified αVβ3 integrin = biological target: T1, purified αVβ3 integrin (Homo sapiens, UniProt P05106+P06756); assay: Radioligand binding assay, [125I]-T4 to purified integrin
T1 construct: purchased
Method: Two μg of purified αVβ3 was mixed with indicated concentrations of test compounds and allowed to incubate for 30 min at room temperature. […] The samples were mixed with sample buffer (50% glycerol, 0.1M Tris-HCl, pH 6.8, and bromophenol blue) and runout on a 5% basic-native gel for 24 h at 45 mA in the cold. The apparatus was disassembled and the gels were placed on filter paper, wrapped in plastic wrap, and exposed to film. Band intensity was determined using the VersaDoc 5000 Imaging system.

[3] = hormone 0.1 uM alone, pretreated FGF2 1.25 ng/ml + VEGF […], day 3

T1 sequence (P06756 31-889 limits assumed): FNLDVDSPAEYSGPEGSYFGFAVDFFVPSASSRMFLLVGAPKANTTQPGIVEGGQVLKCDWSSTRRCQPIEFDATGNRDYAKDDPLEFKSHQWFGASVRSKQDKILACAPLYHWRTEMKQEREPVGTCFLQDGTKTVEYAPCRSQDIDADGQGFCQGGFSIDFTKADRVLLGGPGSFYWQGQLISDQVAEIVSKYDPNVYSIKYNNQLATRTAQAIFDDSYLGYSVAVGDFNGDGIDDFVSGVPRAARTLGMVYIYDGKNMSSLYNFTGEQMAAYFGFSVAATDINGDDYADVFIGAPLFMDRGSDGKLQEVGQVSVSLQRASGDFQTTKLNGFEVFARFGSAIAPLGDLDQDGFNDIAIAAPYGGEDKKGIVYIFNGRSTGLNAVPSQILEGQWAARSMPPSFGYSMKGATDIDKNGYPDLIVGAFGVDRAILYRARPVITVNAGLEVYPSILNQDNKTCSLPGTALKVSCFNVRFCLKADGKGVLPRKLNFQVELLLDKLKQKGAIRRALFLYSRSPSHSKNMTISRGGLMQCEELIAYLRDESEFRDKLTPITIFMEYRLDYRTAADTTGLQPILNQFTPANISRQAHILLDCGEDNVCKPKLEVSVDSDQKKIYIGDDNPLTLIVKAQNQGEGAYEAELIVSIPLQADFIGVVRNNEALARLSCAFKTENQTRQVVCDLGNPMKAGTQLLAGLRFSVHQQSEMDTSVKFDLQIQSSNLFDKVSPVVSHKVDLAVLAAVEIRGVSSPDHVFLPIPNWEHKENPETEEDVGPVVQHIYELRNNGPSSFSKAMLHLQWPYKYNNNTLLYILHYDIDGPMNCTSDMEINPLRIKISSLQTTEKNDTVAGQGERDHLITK
T1 sequence (P06756 891-1048 partner limits assumed): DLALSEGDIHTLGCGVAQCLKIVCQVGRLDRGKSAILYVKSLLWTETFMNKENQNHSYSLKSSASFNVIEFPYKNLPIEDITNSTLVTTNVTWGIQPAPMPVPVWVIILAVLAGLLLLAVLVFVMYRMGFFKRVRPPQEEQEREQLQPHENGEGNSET
T1 sequence (P05106 27-788): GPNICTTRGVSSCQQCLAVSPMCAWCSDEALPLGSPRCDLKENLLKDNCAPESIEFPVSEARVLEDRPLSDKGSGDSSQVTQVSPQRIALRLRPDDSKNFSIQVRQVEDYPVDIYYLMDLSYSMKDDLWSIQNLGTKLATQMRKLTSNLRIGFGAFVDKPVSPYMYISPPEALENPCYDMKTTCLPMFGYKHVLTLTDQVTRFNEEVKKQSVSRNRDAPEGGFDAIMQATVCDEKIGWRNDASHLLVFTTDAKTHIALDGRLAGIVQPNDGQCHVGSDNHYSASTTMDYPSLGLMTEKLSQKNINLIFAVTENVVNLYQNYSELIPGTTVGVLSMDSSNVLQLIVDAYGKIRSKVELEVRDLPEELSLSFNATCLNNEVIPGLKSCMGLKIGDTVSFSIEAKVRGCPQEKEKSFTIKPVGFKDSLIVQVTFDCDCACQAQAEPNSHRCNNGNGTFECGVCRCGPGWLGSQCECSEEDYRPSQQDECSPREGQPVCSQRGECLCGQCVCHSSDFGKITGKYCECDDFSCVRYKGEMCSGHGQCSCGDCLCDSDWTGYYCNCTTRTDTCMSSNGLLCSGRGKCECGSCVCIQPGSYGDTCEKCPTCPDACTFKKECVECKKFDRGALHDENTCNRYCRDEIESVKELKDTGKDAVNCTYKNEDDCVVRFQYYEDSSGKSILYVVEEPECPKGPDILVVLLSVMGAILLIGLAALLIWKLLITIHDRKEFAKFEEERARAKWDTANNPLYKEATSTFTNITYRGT

In the case of N[C@@H](Cc1cc(I)c(Oc2cc(I)c(O)c(I)c2)c(I)c1)C(=O)O [T4, L-thyroxine], the stimulation of angiogenesis ([1]; 0.01-0.1 μM) is reported as “significant (P<0.01) stimulation of angiogenesis”, the “Mean Tube Vessel Length (mm) ± SD” value ([1]; FGF2 25 ng + VEGF 50 ng, T3 20 ng, T4 23 ng, T4-agarose 23 ng, pre-treated with FGF2 1.25 ng/ml + VEGF […]) is reported as 1.65 ± 0.15 mm and the “Mean number of Migrated cells ± SD” value [1, 3] is reported as 182 ± 11. For the same molecule, the “Mean vessel Length (mm) ± SD” value [1, 3] was 1.16 ± 0.21 mm, the “wound healing (outmigrating cells), Day 3” value [2] was “increases wound healing” and the “reduction of [125I]T4 binding to purified αVβ3” value (“reduction of [125I]T4 binding” for short) (purified αVβ3 integrin; competitor 10^−4 M) was “almost completely displaced”. The “reduction of [125I]T4 binding” value (purified αVβ3 integrin; competitor 10^−5 M) was “maximal”, the “reduction of [125I]T4 binding” value (purified αVβ3 integrin; competitor 10^−6 M (total)) was 58% and the “reduction of [125I]T4 binding” value (purified αVβ3 integrin; competitor 10^−7 M (total)) was 13%. For the same molecule, the EC50 (purified αVβ3 integrin; non-linear regression) was 0.371 nM and the Kd (purified αVβ3 integrin; non-linear regression) was 0.333 nM.
